Each structure is given as a SMILES string. Several values for one entry are separate records, joined by “and”; a condition that tells them apart may be missing. Equal entries are not always repeated.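 Following 48 hours of exposure in 96-well plates, responses at five concentrations were used to interpolate endpoints linearly. Abbreviation: GI50, concentration required for 50% inhibition of growth. The concentration for full growth arrest is given as TGI.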

One assay has as its system LOX IMVI melanoma. Kind of assay: NCI-60 cell line screen, 48 h.
Take `COc1ccc(C(=O)c2nc3ccccc3n2CC(=O)c2ccc(Cl)cc2)cc1`: the GI50 was 6.2 µM and the TGI is greater than 100 µM.
Taken in the same sequence, the figures for `O=C(NCCN1CCNCC1)c1ccc(Nc2nc3ccccc3c3occc23)cc1` were 15.2 µM and 33.1 µM.
Consider `OCc1ccc(N2CCOCC2)cc1Cl`, for which the GI50 is greater than 100 µM and the TGI is greater than 100 µM.
`Cc1nc(-c2cccnc2)sc1C(=O)/C=C/c1cccc([N+](=O)[O-])c1`: the TGI is greater than 100 µM.

For another assay, the system named is M19-MEL melanoma. Kind of assay: NCI-60 cell line screen, 48 h.
`Cc1c(C(=O)/C=C/c2ccccc2[N+](=O)[O-])[n+](=O)c2ccccc2n1[O-]` came in with a TGI of 20.5 µM.
Still for that read-out and setting: for `CC(C)(C)c1ccc(OC2CCO2)cc1` (centres undefined) the value was 56.1 µM.
Still for that read-out and setting: the result for `CC1(O)CCn2c(=O)c3cc4ccccc4cc3c(=O)n2C1O` (centres undefined) reads greater than 100 µM; that for `CC(=O)n1c(=O)c2cc3c(=O)n(-c4cccc(C#N)c4)c(=O)c3cc2c1=O`, greater than 100 µM; that for `COc1ccc(C2Oc3c(c(O)cc4c3[C@H](c3ccc(O)cc3O)[C@H](O)C(c3ccc(O)c(O)c3)O4)C[C@@H]2O)cc1O` (some centres undefined), greater than 100 µM.
Still for that read-out and setting: for `CN(C)C(=S)Nc1nnc(Nc2ccccc2)s1` the value was greater than 100 µM.
In the case of `CC(=O)[CH-]C(=O)c1ccccc1.CC(=O)[CH-]C(=O)c1ccccc1.CC1(C)OCC(C2OC3OC(C)(C)OC3C2[O-])O1.CC[O-].[Ti+4]` (centres undefined), the GI50 is 10.5 µM and the TGI came to 24.5 µM.
Compound `CC1(C)CC(=O)C(CC2C(=O)c3ccccc3C2=O)C(=O)C1` registered a TGI greater than 100 µM.
The compound `Cc1cccc(C)c1N1C(=O)C(=O)C(c2nc3ccccc3s2)C(=Nc2cccc3c(=O)[nH][nH]c(=O)c23)C1=O` (centres undefined) came in with a TGI greater than 100 µM.
Still for that read-out and setting: for `Cc1nc(-c2cccnc2)sc1C(=O)/C=C/c1cccc([N+](=O)[O-])c1` the value was greater than 100 µM.

A further assay concerns MDA-MB-435. Briefly: NCI-60 cell line screen, 48 h.
As to `COc1ccc2c(NCCCCCCNc3c4ccccc4nc4cc(OC)ccc34)c3ccccc3nc2c1`, the TGI was determined as 1.26 µM.
With `COc1c(O)c(OC)c2oc(-c3ccc(O)cc3)c(OC)c(=O)c2c1O`, the TGI is greater than 100 µM.
On to `COc1ccc(C2=C(N3CCc4ccccc43)C(=O)NC2=O)cc1`, for which the GI50 is greater than 25 µM and the TGI is greater than 25 µM.
Take `O=[N+]([O-])c1ccc(-c2cc3c(Nc4ccc(Cl)c(C(F)(F)F)c4)ncnc3s2)cc1`: the GI50 is 2.24 µM and the TGI is greater than 100 µM.
Taken in the same sequence, the figures for `Cc1cc2c(cc1Cl)S/C(=C/C(=O)O)C(Nc1cccc3nsnc13)=NS2(=O)=O` were 56.2 µM and greater than 71 µM.
Take `COc1ccc(F)c(F)c1C(=O)c1cnc(NC2CCN(S(C)(=O)=O)CC2)nc1N`: the GI50 is 0.419 µM and 0.309 µM; the TGI is 3.72 µM and > 4.89 µM.
With `Nc1cc(-c2ccc(Cl)cc2)nn1-c1nnc(/C=C/c2ccco2)c(=O)[nH]1`, the GI50 was 5.9 µM and the TGI was greater than 100 µM.
In the case of `O=C1c2ccccc2-c2c1c1c(NCCCO)nc3ccccc3c1n2Cc1ccccc1`, the GI50 was 36 µM and the TGI is greater than 100 µM.
On to `CCOc1ccc(Nc2c3ccccc3nc3ccccc23)cc1`, for which the GI50 is 0.0382 µM and 0.0574 µM; the TGI is 0.359 µM and 0.279 µM.
Regarding `CCNCCNc1cc(-c2ccc(C#N)cc2)c(C#N)c2nc3ccccc3n12`, the GI50 is 2.29 µM and the TGI was determined as 6.28 µM.
Taken in the same sequence, the figures for `COc1cc2nc(-c3ccc(C(F)(F)F)cc3)cc(OCCCN3CCCC3)c2cc1OC` were 1.15 µM and 15.1 µM.
Taken in the same sequence, the figures for `C/C1=C\CC[C@@](C)(O)[C@@H]2C[C@H](CC/C(C)=C/CC1)C1(CC1)C(=O)O2` were 16.5 µM and 35.1 µM.
As for `COc1ccc(C(=O)c2nc3ccccc3n2CC(=O)c2ccc(Cl)cc2)cc1`, the GI50 is 0.336 µM and the TGI was found to be 1.79 µM.
For `O=C(NCCN1CCNCC1)c1ccc(Nc2nc3ccccc3c3occc23)cc1`, the GI50 is 3.1 µM and the TGI amounted to 8.51 µM.
As for `OCc1ccc(N2CCOCC2)cc1Cl`, the GI50 is greater than 100 µM and the TGI was greater than 100 µM.

The next assay has as its system NCI-H522 lung. Kind of assay: NCI-60 cell line screen, 48 h.
Compound `Cc1c(C(=O)/C=C/c2ccccc2[N+](=O)[O-])[n+](=O)c2ccccc2n1[O-]` displayed a TGI of 19.1 µM.
For the compound `COc1ccc2c(NCCCCCCNc3c4ccccc4nc4cc(OC)ccc34)c3ccccc3nc2c1`, the TGI amounted to 0.34 µM.
Still for that read-out and setting: for `CC(C)(C)c1ccc(OC2CCO2)cc1` (centres undefined) the value was 52.5 µM; for `CC1(O)CCn2c(=O)c3cc4ccccc4cc3c(=O)n2C1O` (centres undefined), 50.7 µM.
Take `CC(=O)n1c(=O)c2cc3c(=O)n(-c4cccc(C#N)c4)c(=O)c3cc2c1=O`: the TGI is greater than 100 µM.
With `COc1ccc(C2Oc3c(c(O)cc4c3[C@H](c3ccc(O)cc3O)[C@H](O)C(c3ccc(O)c(O)c3)O4)C[C@@H]2O)cc1O` (some centres undefined), the TGI was greater than 100 µM.
The compound `CN(C)C(=S)Nc1nnc(Nc2ccccc2)s1` returned a TGI greater than 100 µM.
In the case of `CC(=O)[CH-]C(=O)c1ccccc1.CC(=O)[CH-]C(=O)c1ccccc1.CC1(C)OCC(C2OC3OC(C)(C)OC3C2[O-])O1.CC[O-].[Ti+4]` (centres undefined), the GI50 is 16.5 µM and the TGI amounted to 30.8 µM.
Compound `COc1c(O)c(OC)c2oc(-c3ccc(O)cc3)c(OC)c(=O)c2c1O` returned a TGI of 70.9 µM.
On to `COc1ccc(C2=C(N3CCc4ccccc43)C(=O)NC2=O)cc1`, for which the GI50 was greater than 17.9 µM and the TGI is greater than 25 µM.
For the compound `O=[N+]([O-])c1ccc(-c2cc3c(Nc4ccc(Cl)c(C(F)(F)F)c4)ncnc3s2)cc1`, the GI50 is 0.566 µM and the TGI came to 5.13 µM.
Taken in the same sequence, the figures for `Cc1cc2c(cc1Cl)S/C(=C/C(=O)O)C(Nc1cccc3nsnc13)=NS2(=O)=O` were 30.7 µM and greater than 77.4 µM.
In the case of `COc1ccc(F)c(F)c1C(=O)c1cnc(NC2CCN(S(C)(=O)=O)CC2)nc1N`, the GI50 is 2.38 µM and 1.62 µM; the TGI is 6.97 µM and 5.86 µM.

The values are drawn from PubChem BioAssay (NCI).
